# Laboratory results taken from USRE30886E, “Method and composition for reducing blood glucose levels” (Nippon Shinyaku Company Ltd., priority 1975, dated 1982).
# Legend:
# [1] = test system: Sucrose-Administered Rats; assay: Inhibitory action against increase of blood glucose for sucrose-administered rats; assay type: in vivo, Male Sprague Dawley rats; conditions: with 2 g/kg sucrose
# Experimental: Male Sprague Dawley rats with body weight of 150 to 200 grams were fasted overnight, and 2 g/kg of sucrose was administered orally by using a stomach tube. The compound of this invention was simultaneously administered in a similar way at the rate of 1 to 100 mg/kg, and blood was drawn from the tail vein of each rat at suitable time intervals and blood glucose levels were measured by a method using glucose oxidase.
# humans and other animals = assay: Ability to inhibit or reduce the increase of glucose levels in humans and other animals; assay type: in vivo; conditions: upon administration of glucose or a glucose producing carbohydrate
# healthy = assay: Glucose level in the blood of healthy man after oral carbohydrate; assay type: in vivo, human; conditions: 1 to 1000 mg/kg orally, with 50 to 100 grams of glucose
# [2] = test system: Glucose-administered Rats; assay: Inhibitory action against increase of glucose in blood of glucose-administered rats; assay type: in vivo, Male Sprague Dawley rats; conditions: with 2 g/kg glucose; for Blood Glucose Concentration: 5 rats
# Experimental: Male Sprague Dawley rats with body weights ranging from 150 to 200 grams were fasted overnight, and then 2 g/kg of glucose was administered orally by using a stomach tube. The compound of this invention was also administered simultaneously in an amount of 10 to 100 mg/kg, and blood was drawn from the tail vein of each rat at suitable time intervals, and blood glucose levels were measured according to a method using glucose oxidase (Blood Sugar Test, TC-M-III, Boehringer Mannheim A.G.).
# mice = assay: Acute toxicity (LD50) in mice; assay type: in vivo
# [3] = Acute toxicity (LD50) in mice; assay type: in vivo; conditions: mouse, in vivo
# Starch-Administered Rats = assay: Inhibitory action against increase of blood glucose for starch-administered rats; assay type: in vivo, Male Sprague Dawley rats; conditions: with 1 g/kg starch; for Blood Glucose Concentration: 5 rats
# Experimental: Male Sprague Dawley rats with body weight of 150 to 200 grams were fasted overnight, and 1 g/kg of starch was administered orally by using a stomach tube. The compound of this invention was simultaneously administered at the dose of 10 to 100 mg/kg, and blood was drawn from the tail vein of each rat and blood glucose levels were examined by a method using glucose oxidase.
# rats = assay: Antidiabetic action model: glucose level in blood of rats given glucose orally; assay type: in vivo, Male Sprague Dawley rats; conditions: 1 to 1000 mg/kg, with glucose 0.5 to 4 g/kg orally
# Experimental: Male Sprague Dawley rats of body weight of 150 to 200 grams are fasted overnight and glucose is then administered orally at the rate of 0.5 to 4 g/kg by using a stomach tube. Blood is drawn from the tail vein of each rat at suitable time intervals to determine glucose level in the blood. The glucose content in the blood increases rapidly to cause hyperglycemia.
# lipid biosynthesis = assay: Ability to inhibit lipid biosynthesis
# [4] = 10 mg/kg oral, 0 min after administration
# [5] = 10 mg/kg oral, 15 min after administration
# [6] = 10 mg/kg oral, 30 min after administration
# [7] = 10 mg/kg oral, 60 min after administration
# [8] = 100 mg/kg oral, 0 min after administration
# [9] = 100 mg/kg oral, 15 min after administration
# [10] = 100 mg/kg oral, 30 min after administration
# [11] = 100 mg/kg oral, 60 min after administration
structure (smiles),measurement,setting,value
"OC[C@H]1NC[C@H](O)[C@@H](O)[C@@H]1O [compound of this invention, 2(R),3(R),4(R),5(S)-2-hydroxymethyl-3,4,5-trihydroxypiperidine]",Blood Glucose Concentration,"[1]; 1 mg/kg oral, 0 min after administration, 5 rats",69 mg %
same,Blood Glucose Concentration,"[1]; 1 mg/kg oral, 15 min after administration, 5 rats",98 mg %
same,Blood Glucose Concentration,"[1]; 1 mg/kg oral, 30 min after administration, 5 rats",121 mg %
same,Blood Glucose Concentration,"[1]; 1 mg/kg oral, 60 min after administration, 5 rats",127 mg %
same,Blood Glucose Concentration,"[1]; 10 mg/kg oral, 0 min after administration, 6 rats",47 mg %
same,Blood Glucose Concentration,"[1]; 10 mg/kg oral, 15 min after administration, 6 rats",57 mg %
same,Blood Glucose Concentration,"[1]; 10 mg/kg oral, 30 min after administration, 6 rats",52 mg %
same,Blood Glucose Concentration,"[1]; 10 mg/kg oral, 60 min after administration, 6 rats",97 mg %
same,Increase of glucose in the blood,[1]; 10 mg/kg,totally inhibited
same,Blood Glucose Concentration,"[1]; 100 mg/kg oral, 0 min after administration, 5 rats",52 mg %
same,Blood Glucose Concentration,"[1]; 100 mg/kg oral, 15 min after administration, 5 rats",66 mg %
same,Blood Glucose Concentration,"[1]; 100 mg/kg oral, 30 min after administration, 5 rats",63 mg %
same,Blood Glucose Concentration,"[1]; 100 mg/kg oral, 60 min after administration, 5 rats",64 mg %
same,increase of glucose levels,humans and other animals,inhibit or reduce the increase of glucose levels
same,rise of the glucose content in the blood,healthy,rise of the glucose content in the blood is inhibited corresponding to the dosage
same,Blood Glucose Concentration,[2]; [4],59 mg %
same,Blood Glucose Concentration,[2]; [5],100 mg %
same,Blood Glucose Concentration,[2]; [6],108 mg %
same,Blood Glucose Concentration,[2]; [7],107 mg %
same,Blood Glucose Concentration,[2]; [8],52 mg %
same,Blood Glucose Concentration,[2]; [9],59 mg %
same,Blood Glucose Concentration,[2]; [10],58 mg %
same,Blood Glucose Concentration,[2]; [11],63 mg %
same,Increase of glucose in the blood,[2]; 100 mg/kg,totally inhibited
same,toxicity,mice,very low
same,LD50,[3]; intravenous administration,> 800 mg/kg
same,LD50,[3]; oral administration,> 1200 mg/kg
same,Blood Glucose Concentration,Starch-Administered Rats; [4],53 mg %
same,Blood Glucose Concentration,Starch-Administered Rats; [5],67 mg %
same,Blood Glucose Concentration,Starch-Administered Rats; [6],80 mg %
same,Blood Glucose Concentration,Starch-Administered Rats; [7],83 mg %
same,Blood Glucose Concentration,Starch-Administered Rats; [8],52 mg %
same,Blood Glucose Concentration,Starch-Administered Rats; [9],57 mg %
same,Blood Glucose Concentration,Starch-Administered Rats; [10],63 mg %
same,Blood Glucose Concentration,Starch-Administered Rats; [11],59 mg %
same,Increase of glucose in the blood,Starch-Administered Rats; 100 mg/kg,totally inhibit increase of glucose in the blood
same,rise of the glucose content in the blood,rats,rise of the glucose content in the blood is inhibited
same,inhibition of lipid biosynthesis,lipid biosynthesis,inhibit lipid biosynthesis
